The values that follow come from PubChem BioAssay (NCI).

Several values for one entry are separate records, joined by “and”; a condition that tells them apart may be missing. Equal values may be shown once.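 Cells were grown in 96-well plates and exposed to each compound for 48 hours at five concentrations; endpoints were interpolated linearly between bracketing concentrations, or set to the highest concentration if not reached. GI50: concentration for 50% inhibition of growth. Definition used: TGI = concentration required for complete inhibition of growth.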 Bounds are passed on as bounds.

Some test systems named below: KM12 colon; BT-549 breast; CCRF-CEM leukemia; OVCAR-5 ovarian; A498 renal; HCT-116 colon; TK-10 renal; HCC-2998 colon; SW-620 colon; OVCAR-3 ovarian.
Experiment in all cases: DTP human tumour cell line panel, 48 h

A word on the GI50: it is the concentration that inhibits growth by half. The term TGI denotes the concentration at which net growth stops. A higher TGI goes with less potent growth arrest. Take `NC(=O)c1ccc2nc(-c3ccc(Oc4ccc(Cl)cc4)cc3)[nH]c2c1`: the GI50 in the test on KM12 colon was 65 µM and 13.9 µM; in the test on BT-549 breast, 18 µM and 12.9 µM; with CCRF-CEM leukemia, 23.5 µM and 15.7 µM; in the test on OVCAR-5 ovarian it was > 75 µM and 18.6 µM; in the test on A498 renal, 21.2 µM and 15.7 µM; in the test on HCT-116 colon it was 8.14 µM and 12.3 µM. Further, the GI50 was 8.61 µM and 16.4 µM with TK-10 renal; 23 µM and 9.61 µM with SW-620 colon; 20.8 µM and 14.4 µM in the test on OVCAR-3 ovarian. For the same molecule, the TGI in the test on KM12 colon is 75 µM and 31.3 µM; with BT-549 breast, 67.1 µM and 28.2 µM; in the test with CCRF-CEM leukemia, 75 µM and 64.1 µM; with OVCAR-5 ovarian, > 75 µM and 36.8 µM; in the test on A498 renal, 75 µM and 30.1 µM; in the test with HCT-116 colon, 75 µM and 33.4 µM. For the same molecule, the TGI is 75 µM and 39.9 µM in the test with TK-10 renal; 75 µM and 33.5 µM in the test with HCC-2998 colon; 75 µM and 25.9 µM in the test on SW-620 colon; 75 µM and 34.8 µM in the test on OVCAR-3 ovarian.
